Measured values as given in article PMC4508061, “Selectivity Profiling and Biological Activity of Novel β-Carbolines as Potent and Selective DYRK1 Kinase Inhibitors” (PLoS ONE, 2015).

What was measured:
Test in all cases: ProQinase radiometric kinase panel
Conditions in all cases: mean of 2 exp.
[1] = biological target: PDK1 (Homo sapiens, UniProt O15530)
[2] = biological target: PAK1 (Homo sapiens, UniProt Q13153)
[3] = biological target: MET (Homo sapiens, UniProt P08581)
[4] = biological target: LIMK1 (Homo sapiens, UniProt P53667)
Procedure: (§1) Gini coefficients were calculated and the Lorenz curve (Fig 3B) was plotted by applying the Microsoft Excel spreadsheet provided by Graczyk [44].
radiometric protein kinase assays.

[5] = biological target: CDK8/CycC (Homo sapiens, UniProt P49336)
[6] = biological target: MAP3K10 (Homo sapiens, UniProt Q02779)
[7] = biological target: PKC-theta (Homo sapiens, UniProt Q04759)
[8] = biological target: ROS (Homo sapiens, UniProt P08922)
[9] = biological target: NEK3 (Homo sapiens, UniProt P51956)
[10] = biological target: RPS6KA3 (Homo sapiens, UniProt P51812)
[11] = biological target: EPHB3 (Homo sapiens, UniProt P54753)
[12] = biological target: MARK1 (Homo sapiens, UniProt Q9P0L2)
[13] = biological target: SRPK2 (Homo sapiens, UniProt P78362)
[14] = biological target: SYK (Homo sapiens, UniProt P43405)
[15] = biological target: TXK (Homo sapiens, UniProt P42681)
[16] = biological target: STK39 (Homo sapiens, UniProt Q9UEW8)
[17] = biological target: Aurora-A (Homo sapiens, UniProt O14965)
[18] = biological target: SGK1 (Homo sapiens, UniProt O00141)
[19] = biological target: MUSK (Homo sapiens, UniProt O15146)
[20] = biological target: Aurora-B (Homo sapiens, UniProt Q96GD4)
[21] = biological target: NLK (Homo sapiens, UniProt Q9UBE8)
[22] = biological target: MKNK1 (Homo sapiens, UniProt Q9BUB5)
[23] = biological target: ERK2 (Homo sapiens, UniProt P28482)
[24] = biological target: MAP4K4 (Homo sapiens, UniProt O95819)
[25] = biological target: T1, HIPK4 (Homo sapiens, UniProt Q8NE63)
T1 sequence (Q8NE63 1-616): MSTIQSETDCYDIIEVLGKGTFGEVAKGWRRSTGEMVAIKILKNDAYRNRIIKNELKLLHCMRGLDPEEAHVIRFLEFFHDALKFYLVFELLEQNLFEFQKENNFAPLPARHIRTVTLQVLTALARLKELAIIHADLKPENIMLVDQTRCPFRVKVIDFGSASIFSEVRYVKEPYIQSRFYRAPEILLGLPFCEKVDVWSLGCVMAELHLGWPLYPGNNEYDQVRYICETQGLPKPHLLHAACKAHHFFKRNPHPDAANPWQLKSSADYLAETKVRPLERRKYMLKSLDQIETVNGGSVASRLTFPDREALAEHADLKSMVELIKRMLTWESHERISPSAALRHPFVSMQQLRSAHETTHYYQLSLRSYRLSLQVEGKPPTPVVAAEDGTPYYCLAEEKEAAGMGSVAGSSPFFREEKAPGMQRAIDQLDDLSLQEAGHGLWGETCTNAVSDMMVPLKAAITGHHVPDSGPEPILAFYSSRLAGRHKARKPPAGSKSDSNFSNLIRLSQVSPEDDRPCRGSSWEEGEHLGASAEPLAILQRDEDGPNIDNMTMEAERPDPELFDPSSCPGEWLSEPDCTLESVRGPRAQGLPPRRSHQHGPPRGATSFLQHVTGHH

[26] = biological target: ITK (Homo sapiens, UniProt Q08881)
[27] = biological target: LCK (Homo sapiens, UniProt P06239)
Procedure: as §1
radiometric protein kinase assays.

[28] = biological target: STK17A (Homo sapiens, UniProt Q9UEE5)
[29] = biological target: MEK1 (Homo sapiens, UniProt Q02750)
[30] = biological target: EGF-R (Homo sapiens, UniProt P00533)
[31] = biological target: ACV-R1 (Homo sapiens, UniProt Q04771)
[32] = biological target: RPS6KA5 (Homo sapiens, UniProt O75582)

Sequence of MKNK1 (Q9BUB5 whole entry): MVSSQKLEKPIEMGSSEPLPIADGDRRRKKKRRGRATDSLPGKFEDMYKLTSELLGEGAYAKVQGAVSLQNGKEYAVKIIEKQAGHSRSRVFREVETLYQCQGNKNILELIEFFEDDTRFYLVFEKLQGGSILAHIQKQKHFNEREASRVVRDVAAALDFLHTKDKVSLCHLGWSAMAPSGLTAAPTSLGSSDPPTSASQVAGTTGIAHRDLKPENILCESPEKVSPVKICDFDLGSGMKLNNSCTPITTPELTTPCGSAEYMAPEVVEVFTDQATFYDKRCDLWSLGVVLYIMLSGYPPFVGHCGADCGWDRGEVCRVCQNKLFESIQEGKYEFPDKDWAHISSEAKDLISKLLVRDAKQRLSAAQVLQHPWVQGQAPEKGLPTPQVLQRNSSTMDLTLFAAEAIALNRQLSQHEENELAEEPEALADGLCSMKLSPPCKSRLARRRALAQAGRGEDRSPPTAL
Sequence of ERK2 (P28482 whole entry): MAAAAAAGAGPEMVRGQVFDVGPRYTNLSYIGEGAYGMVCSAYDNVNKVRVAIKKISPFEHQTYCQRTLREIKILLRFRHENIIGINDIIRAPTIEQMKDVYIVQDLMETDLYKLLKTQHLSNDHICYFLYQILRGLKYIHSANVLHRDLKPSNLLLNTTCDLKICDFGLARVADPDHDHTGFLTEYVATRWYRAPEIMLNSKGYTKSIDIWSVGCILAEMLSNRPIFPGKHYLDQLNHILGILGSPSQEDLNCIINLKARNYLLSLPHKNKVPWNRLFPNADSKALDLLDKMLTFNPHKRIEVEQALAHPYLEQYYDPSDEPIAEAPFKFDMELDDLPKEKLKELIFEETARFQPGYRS
Sequence of SGK1 (O00141 whole entry): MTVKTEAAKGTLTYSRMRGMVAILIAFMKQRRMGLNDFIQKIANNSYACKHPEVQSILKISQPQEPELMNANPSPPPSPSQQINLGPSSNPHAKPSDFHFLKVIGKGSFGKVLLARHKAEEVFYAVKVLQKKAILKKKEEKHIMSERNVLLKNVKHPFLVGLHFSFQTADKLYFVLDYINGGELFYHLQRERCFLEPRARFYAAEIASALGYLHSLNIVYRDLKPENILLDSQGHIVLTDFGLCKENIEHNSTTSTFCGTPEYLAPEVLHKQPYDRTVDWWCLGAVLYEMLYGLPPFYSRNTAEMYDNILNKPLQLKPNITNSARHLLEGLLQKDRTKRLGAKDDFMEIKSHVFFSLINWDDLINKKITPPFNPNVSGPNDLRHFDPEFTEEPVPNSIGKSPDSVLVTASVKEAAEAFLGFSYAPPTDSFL
Sequence of RPS6KA3 (P51812 whole entry): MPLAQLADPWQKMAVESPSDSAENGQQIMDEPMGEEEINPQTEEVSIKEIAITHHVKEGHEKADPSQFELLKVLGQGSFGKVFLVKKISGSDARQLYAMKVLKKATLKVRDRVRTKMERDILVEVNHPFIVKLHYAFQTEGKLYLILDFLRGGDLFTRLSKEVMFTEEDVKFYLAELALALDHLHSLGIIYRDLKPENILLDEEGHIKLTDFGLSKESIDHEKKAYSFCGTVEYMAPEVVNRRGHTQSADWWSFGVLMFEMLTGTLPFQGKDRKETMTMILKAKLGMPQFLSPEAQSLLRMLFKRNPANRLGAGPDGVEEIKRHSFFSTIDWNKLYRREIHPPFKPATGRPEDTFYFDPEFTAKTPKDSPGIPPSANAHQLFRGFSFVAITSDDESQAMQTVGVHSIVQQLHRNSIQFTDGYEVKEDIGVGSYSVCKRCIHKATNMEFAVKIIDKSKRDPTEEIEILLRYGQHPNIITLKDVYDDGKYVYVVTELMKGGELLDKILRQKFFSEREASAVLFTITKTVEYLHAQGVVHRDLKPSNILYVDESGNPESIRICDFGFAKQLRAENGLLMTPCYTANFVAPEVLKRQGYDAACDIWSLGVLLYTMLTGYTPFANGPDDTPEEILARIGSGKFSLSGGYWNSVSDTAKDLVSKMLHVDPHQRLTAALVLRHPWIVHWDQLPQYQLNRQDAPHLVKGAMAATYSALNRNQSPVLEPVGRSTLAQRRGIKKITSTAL
Sequence of MARK1 (Q9P0L2 whole entry): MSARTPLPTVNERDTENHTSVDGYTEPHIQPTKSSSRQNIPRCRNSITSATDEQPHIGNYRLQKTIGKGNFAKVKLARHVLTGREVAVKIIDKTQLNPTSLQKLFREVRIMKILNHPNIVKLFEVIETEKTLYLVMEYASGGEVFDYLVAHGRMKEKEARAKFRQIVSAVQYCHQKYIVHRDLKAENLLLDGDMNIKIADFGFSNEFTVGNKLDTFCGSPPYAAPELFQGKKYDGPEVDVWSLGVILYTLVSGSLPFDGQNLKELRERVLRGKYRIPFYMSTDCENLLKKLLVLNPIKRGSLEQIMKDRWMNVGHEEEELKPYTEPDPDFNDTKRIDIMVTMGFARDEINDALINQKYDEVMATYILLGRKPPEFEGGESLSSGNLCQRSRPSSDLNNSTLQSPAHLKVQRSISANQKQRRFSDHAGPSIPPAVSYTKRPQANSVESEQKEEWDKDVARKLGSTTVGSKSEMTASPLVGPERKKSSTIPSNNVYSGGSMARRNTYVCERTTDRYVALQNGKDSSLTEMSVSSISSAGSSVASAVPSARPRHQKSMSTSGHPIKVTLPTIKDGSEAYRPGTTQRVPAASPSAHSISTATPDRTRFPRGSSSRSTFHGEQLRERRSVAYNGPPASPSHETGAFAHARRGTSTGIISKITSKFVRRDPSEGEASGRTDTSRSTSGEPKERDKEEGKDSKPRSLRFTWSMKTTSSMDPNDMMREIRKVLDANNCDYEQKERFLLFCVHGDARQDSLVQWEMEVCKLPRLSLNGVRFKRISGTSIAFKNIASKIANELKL
Sequence of LIMK1 (P53667 whole entry): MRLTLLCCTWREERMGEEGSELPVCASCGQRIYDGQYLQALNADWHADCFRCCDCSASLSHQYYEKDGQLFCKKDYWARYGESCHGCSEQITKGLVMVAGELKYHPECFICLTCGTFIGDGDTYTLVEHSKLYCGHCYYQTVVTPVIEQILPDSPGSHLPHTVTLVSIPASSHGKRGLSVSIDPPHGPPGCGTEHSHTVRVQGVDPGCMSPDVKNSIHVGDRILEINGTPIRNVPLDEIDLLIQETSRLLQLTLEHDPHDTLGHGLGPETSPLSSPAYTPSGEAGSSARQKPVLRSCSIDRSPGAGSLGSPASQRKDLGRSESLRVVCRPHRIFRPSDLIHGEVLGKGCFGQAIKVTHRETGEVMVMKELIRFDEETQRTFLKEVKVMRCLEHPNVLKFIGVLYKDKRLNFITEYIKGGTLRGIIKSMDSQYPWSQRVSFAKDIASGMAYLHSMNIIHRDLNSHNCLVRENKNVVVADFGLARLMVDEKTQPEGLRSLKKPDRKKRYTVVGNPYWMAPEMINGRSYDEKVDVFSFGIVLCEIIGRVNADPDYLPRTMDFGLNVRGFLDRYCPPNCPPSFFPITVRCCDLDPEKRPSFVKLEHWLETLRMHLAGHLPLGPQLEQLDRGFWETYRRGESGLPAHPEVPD
Sequence of MEK1 (Q02750 whole entry): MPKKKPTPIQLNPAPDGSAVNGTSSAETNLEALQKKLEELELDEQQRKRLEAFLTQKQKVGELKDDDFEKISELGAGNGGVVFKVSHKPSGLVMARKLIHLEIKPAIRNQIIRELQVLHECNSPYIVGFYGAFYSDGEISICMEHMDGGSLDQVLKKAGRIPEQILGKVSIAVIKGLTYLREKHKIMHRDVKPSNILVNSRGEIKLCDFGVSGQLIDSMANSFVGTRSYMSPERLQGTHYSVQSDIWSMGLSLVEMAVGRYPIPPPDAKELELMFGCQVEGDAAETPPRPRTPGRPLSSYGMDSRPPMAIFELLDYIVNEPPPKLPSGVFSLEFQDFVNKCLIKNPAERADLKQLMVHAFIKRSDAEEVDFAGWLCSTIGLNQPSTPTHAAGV
Sequence of TXK (P42681 whole entry): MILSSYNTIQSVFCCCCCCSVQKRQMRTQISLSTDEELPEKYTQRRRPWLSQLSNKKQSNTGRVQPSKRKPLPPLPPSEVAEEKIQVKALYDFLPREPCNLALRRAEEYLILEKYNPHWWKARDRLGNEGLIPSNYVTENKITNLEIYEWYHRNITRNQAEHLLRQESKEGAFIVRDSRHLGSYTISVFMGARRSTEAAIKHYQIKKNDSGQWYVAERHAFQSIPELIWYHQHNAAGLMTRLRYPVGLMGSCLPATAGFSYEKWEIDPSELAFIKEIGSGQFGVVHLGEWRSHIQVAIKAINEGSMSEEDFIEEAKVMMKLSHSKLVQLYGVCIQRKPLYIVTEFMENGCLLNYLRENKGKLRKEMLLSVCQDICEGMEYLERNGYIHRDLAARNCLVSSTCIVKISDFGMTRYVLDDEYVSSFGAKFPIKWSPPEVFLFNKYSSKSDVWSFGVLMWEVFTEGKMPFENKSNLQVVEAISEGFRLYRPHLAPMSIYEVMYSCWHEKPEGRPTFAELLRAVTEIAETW
Sequence of Aurora-B (Q96GD4 whole entry): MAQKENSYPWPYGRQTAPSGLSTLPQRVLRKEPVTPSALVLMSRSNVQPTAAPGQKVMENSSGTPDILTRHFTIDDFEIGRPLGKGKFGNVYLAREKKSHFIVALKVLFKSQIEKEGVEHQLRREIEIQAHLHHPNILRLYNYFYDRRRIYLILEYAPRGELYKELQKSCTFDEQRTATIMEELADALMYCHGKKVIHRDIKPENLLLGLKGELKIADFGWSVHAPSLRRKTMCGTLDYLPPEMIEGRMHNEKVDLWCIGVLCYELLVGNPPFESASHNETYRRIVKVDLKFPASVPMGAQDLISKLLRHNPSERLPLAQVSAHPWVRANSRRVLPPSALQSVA

residual activity at 1 µM, Mean [1]: 99 % of control
residual activity at 1 µM, Mean [2]: 103 % of control
residual activity at 1 µM, Mean [3]: 100 % of control
residual activity at 1 µM, Mean [4]: 57 % of control
residual activity at 1 µM, Mean [5]: 18 % of control
residual activity at 1 µM, Mean [6]: 91 % of control
residual activity at 1 µM, Mean [7]: 113 % of control
residual activity at 1 µM, Mean [8]: 94 % of control
residual activity at 1 µM, Mean [9]: 91 % of control
residual activity at 1 µM, Mean [10]: 101 % of control
residual activity at 1 µM, Mean [11]: 96 % of control
residual activity at 1 µM, Mean [12]: 101 % of control
residual activity at 1 µM, Mean [13]: 106 % of control
residual activity at 1 µM, Mean [14]: 101 % of control
residual activity at 1 µM, Mean [15]: 94 % of control
residual activity at 1 µM, Mean [16]: 85 % of control
residual activity at 1 µM, Mean [17]: 89 % of control
residual activity at 1 µM, Mean [18]: 91 % of control
residual activity at 1 µM, Mean [19]: 101 % of control
residual activity at 1 µM, Mean [20]: 104 % of control
residual activity at 1 µM, Mean [21]: 92 % of control
residual activity at 1 µM, Mean [22]: 103 % of control
residual activity at 1 µM, Mean [23]: 87 % of control
residual activity at 1 µM, Mean [24]: 85 % of control
residual activity at 1 µM, Mean [25]: 88 % of control
residual activity at 1 µM, Mean [26]: 95 % of control
residual activity at 1 µM, Mean [27]: 91 % of control
residual activity at 1 µM, Mean [28]: 89 % of control
residual activity at 1 µM, Mean [29]: 72 % of control
residual activity at 1 µM, Mean [30]: 104 % of control
residual activity at 1 µM, Mean [31]: 93 % of control
residual activity at 1 µM, Mean [32]: 96 % of control
Structure (SMILES): COc1ccc2c3ccnc(Cl)c3n(CC#N)c2c1 [AnnH75]
